From patent publication US8808718B2, “Hypertonic organic acid or salt thereof disinfectant composition and its use in dental treatment” (Nikinc Pharma B.V., priority 2010, dated 2014)
Several values for one entry are separate records, joined by “and”; a condition that tells them apart may be missing. Identical values can stand only once. Like-named read-outs stand apart in the source and are kept apart here.

Columns and labels:
[1] = tested on: biofilm of Enterococcus faecalis and Pseudomonas aeruginosa; assay: Dual-species biofilm model, whole biofilm (total kill, plaque observation); format: cell-based; settings: for visual observation of biofilm plaque on glass coverslips: after the experimental phase, calcification seen after 24 h
Text: The broth was refreshed daily. […] Later on biofilm growth was confirmed clinically. […] Colonies were very small. […] For imaging a Leica DM-IRB inverted microscope/SP2-AOBS confocal system was used. Images (512*512 pixels) were acquired with a 40×/NA 1.25 HCX PL APO oil objective. The final pixel size was 0.776 μm. […] Image stacks were acquired with a stepsize of 0.3 μm. Excitation/detection of Syto-9 and propidium iodide (PI) was done simultaneously with 488 nm excitation and with 500-550 nm detection for SYTO 9 and 600-690 nm detection for PI respectively.

Enterococcus faecalis = settings: for mean log reduction of CFU compared with the controls: E. faecalis in dual-species biofilm; for significance of reduction of E. faecalis vs negative controls (ANOVA): α=0.05
Method: (§1) In brief, round glass cover slips attached to a custom made stainless steel lid, were suspended in medium inoculated with bacteria.
(§2) Cells of E. faecalis V583 and P. aeruginosa, both clinical isolates, were grown and maintained as pure cultures on blood agar plates. E. faecalis was grown under anaerobic conditions (80% N2, 10% H2 and 1.0% CO2) while P. aeruginosa was grown in air, both at 37° C. Because of their shape, Gram-staining and atmospheric preferences, distinguishing between the two species with (ISM and CFU was fairly simple. Growth media for overnight cultures and biofilms were Brain Heart Infusion Broth (BHI, Oxoid, Basinstoke, UK) and BHI-broth contained 0.5 BHI, 50 mM pipes, 5% saccharose, 1 mM Ca^2+ during biofilm growth. In the experimental phase, sodium chloride (NaCl), (Merck, Darmstadt, Germany) was added to the BHI-broth to raise the osmotic value. Other medicaments used were saturated Ca(OH) in BHI-broth (slurry), 2% sodium hypochlorite (NaOCl), Merck, Darmstadt, Germany), 2% sodium thiosulphate (STS) in peptone water (1% peptone (Oxoid) in water) for neutralising the NaOCl. Phosphate buffered saline (PBS, Oxoid) was used to wash the negative controls, as a neutralising agent for NaCl, Ca(OH)2 and for serial
(§3) Fresh cultures of each micro-organism were obtained by suspending one loopful bacteria in 5 mL BHI and grown overnight at 37° C. in air. Numbers of CFU were estimated by optical density measurement at 600 nm and relating the readings to previously performed bacterial counts. 100 μL with approximately 2×10^9 E. faecalis and 100 μL with approximately 2×10^7 P. aeruginosa were inoculated in wells of a 24 Well Multiwell Plate (Greiner Bio-one, Frickenhausen, Germany) containing 1.5 mL BHI-broth. Round glass cover slips (MMG, Germany), diameter 15 mm, mounted in a custom-made stainless steel lid, were suspended in the BHI-broth. Biofilms were grown on glass cover slips to be able to monitor the biofilm growth with a confocal laser scanning microscope (CLSM; Leica SP2-OBS). The biofilms were firmly attached on the glass slips, allowing manipulation of the coverslips without biofilm disruption.
(§4) Biofilms were grown on the coverslips for 96 h before exposure to the medicaments. […] The broth was refreshed daily. Inoculation of bacteria and the biofilm growth took place at 37° C. in air. After 48 h biofilm growth was confirmed with the aid of CLSM. Three coverslips with attached biofilms were viewed with CLSM after staining with Syto 9 and propidium iodine (PI) (LIVE/DEAD® BacLight™) according to the manufacturer's instruction. Intact, live cells stain fluorescent green, while dead cells with damaged plasma membranes stain fluorescent red.
(§5) After 96 h the coverslips with the attached bio films were submerged in NaCl-broth or Ca(OH)2-broth for 4 h, 24 h, 48 h, 72 h and 168 h. The negative controls were kept in BHI-broth. Where applicable, the incubation fluids were refreshed daily. Submersion in NaOCl 2% for 10 min served as a positive control.

Pseudomonas aeruginosa = settings: for mean log reduction of CFU compared with the controls: P. aeruginosa in dual-species biofilm; for significance of reduction of P. aeruginosa vs negative controls (ANOVA): α=0.05
Method: as §1, §2, §3, §4, §5

[2] = dual-species biofilms exposed to Ca(OH)2

Compound | effectiveness in the biofilm model (conclusion) [1] | visual observation of biofilm plaque on glass coverslips [1] | bacterial reduction after a week (end of experiment) [1, 2] | bacterial reduction, initial [1, 2] | mean log reduction of CFU compared with the controls (Enterococcus faecalis; 72 h exposure) | mean log reduction of CFU compared with the controls (Enterococcus faecalis; 168 h exposure) | significance of reduction of E. faecalis vs negative controls (ANOVA) (Enterococcus faecalis) | mean log reduction of CFU compared with the controls (Pseudomonas aeruginosa; 72 h exposure) | mean log reduction of CFU compared with the controls (Pseudomonas aeruginosa; 168 h exposure) | significance of reduction of P. aeruginosa vs negative controls (ANOVA) (Pseudomonas aeruginosa) | kill ([1]; 2% NaOCl, 10 min exposure) | reductions after a week's exposure ([1]; 6.2 M NaCl in broth, dual species biofilm, one value per species, species not assigned) | mean remaining CFU of E. faecalis (Enterococcus faecalis; after 168 h exposure) | P. aeruginosa CFU detected after exposure (Pseudomonas aeruginosa; after 168 h exposure, control biofilms 1.5×10^9 CFU)
[Ca+2].[OH-].[OH-] [Ca(OH)2, calcium hydroxide] | not effective | all samples showed bio film calcification | tenfold | hundredfold | 2 log CFU | 1 log CFU | not significant | 2 log CFU | 1 log CFU | significantly |  |  |  | 
OCl [NaOCl, sodium hypochlorite] |  |  |  |  |  |  |  |  |  |  | 100% |  |  | 
[Cl-].[Na+] [NaCl, sodium chloride] |  | no signs of a biofilm plaque |  |  | 6 log CFU | 8 log CFU | highly significant | 6 log CFU | 8 log CFU | highly significant |  | 10^8 and 10^7 | 40 CFU | none could be detected
